In publication PMC9057582, “HIF inhibitor 32-134D eradicates murine hepatocellular carcinoma in combination with anti-PD1 therapy” (The Journal of Clinical Investigation, 2022):

Test system: HIF-1, HIF-2 and p300 recruitment to HREs
Assay: ChIP-qPCR of HRE occupancy in Hep3B cells
Type: cell-based, human
Details: 16 hours, 5 µM 32-134D or 10 µM PT2385
Protocol: Coadministration of the proteasome inhibitor MG-132 blocked the effect of 32-134D on HIF-1α protein levels (Figure 1H). […] Taken together, the results presented in Figure 1 and Supplemental Figures 1–3 indicate that 32-134D induces HIF-α subunit degradation, thereby inhibiting activation of HIF-1 and HIF-2 target gene transcription.
Cells were seeded overnight and then exposed to 20% or 1% O2 in the presence of compound or vehicle for 16 hours. Protein was cross-linked to DNA by addition of 37% formaldehyde to culture medium for 10 minutes at 37°C and quenched by addition of 0.1 M glycine. Cells were washed with and collected in 5 mL of cold PBS containing PIs. Cells were pelleted and resuspended in 200 μL of SDS lysis buffer (50 mM Tris-HCl [pH 8.1], 10 mM EDTA, 1% SDS) containing PIs and incubated on ice for 10 minutes. Lysates were sonicated to produce DNA fragments ranging from 200 to 900 bp and centrifuged for 10 minutes at 4°C. Supernatants were collected and diluted 10-fold with dilution buffer (16.7 mM Tris-HCl [pH 8.1], 167 mM NaCl, 1.2 mM EDTA, 0.01% SDS, 1.1% Triton X-100) with PIs, precleared with 20 μL of salmon sperm DNA/protein A agarose slurry, and a 20-μL aliquot was reserved as input control. Antibody (2 μg; see Supplemental Table 6) was added and samples were rotated overnight at 4°C. Immune complexes were precipitated with 50 μL of salmon sperm DNA/protein A agarose slurry. Pelleted beads were washed serially using low-salt wash buffer (20 mM Tris-HCl [pH 8.1], 150 mM NaCl, 2 mM EDTA, 0.1% SDS, 1% Triton X-100); high-salt wash buffer (20 mM Tris-HCl [pH 8.1], 500 mM NaCl, 2 mM EDTA, 0.1% SDS, 1% Triton X-100); LiCl wash buffer (10 mM Tris-HCl [pH 8.1], 0.25 M LiCl, 1% Nonidet P-40, 1% deoxycholate, 1 mM EDTA); and TE buffer (10 mM Tris-HCl [pH 8.1], 1 mM EDTA). Elution buffer (1% SDS, 0.1 M NaHCO3) was added and eluates were heated at 65°C overnight to reverse cross-linking. Eluates were treated with proteinase K for 1 hour at 45°C and DNA was purified by extraction in phenol/chloroform/isoamyl alcohol (25:24:1, v/v/v) and isopropanol precipitation. […]

Brc1ccc2c(-c3csc(-c4c[nH]c5c(Br)cccc45)n3)c[nH]c2c1 [Compound 32-134D]
hypoxia-induced recruitment of HIFs and p300 to EPO and ANGPTL4 HREs: impaired | hypoxia-induced recruitment of HIFs and p300 to the CA9 HRE: impaired
